What was measured:
GST-ΔPH-Akt1 = molecular target: T1, GST-ΔPH-Akt1 (Homo sapiens, UniProt P31749); assay: Biochemical ΔPH Akt1 assay (flashplate, 33P incorporation into histone 2B); conditions: 100 nM ATP, histone 2B substrate; read-out: ΔPHAkt1 inhibition: IC50
T1 construct: named GST-deltaPH-Akt1; 107-480aa; cloned in the pAcGl vector; GST (N); made in house; host or cells: SF9 insect cells (baculovirus vector pAcG1), co-expressed with PDK1
Text: For the biochemical assay ΔPHAkt1 is used devoid of its PH domain as a GST fusion protein (named GST-deltaPH-Akt1; 107-480aa; cloned in the pAcGl vector (BD Biosciences Pharmingen)), co-expressed with PDK1 in SF9 insect cells. The protein is purified using glutathion-affinity chromatography by standard protocols.
In order to study the inhibition of Akt according to the invention, a flashplate-based assay has been developed.
The Akt1 assay is a biochemical assay using Akt1 devoid of its PH domain and co-expressed with PDK1 in insect cells. The GST-ΔPH-Akt1 assay is run in 96 well plates by incubating 100 ng/well GST-ΔPH-Akt1, 100 ng/well histone 2B (Roche, #223514) as substrate, 10 μl of compound of invention (test compounds were dissolved as 10 mM solutions in dimethylsulfoxide (DMSO) and subsequently diluted) and 100 nM ATP (including ^33P-ATP) in 100 μl of reaction buffer ([…], pH7,5; 3 mM MgCl2; 3 mM MnCl2; 3 μM Na-Orthovanadat; 1 mM DTT; 1 μg/ml PEG8000) for 80 minutes at 30° C. The reactions are terminated by adding 100 μl stopping buffer (2% H3PO4 for 5 minutes) and are washed 3 times by using washing buffer (0.9% NaCl). Relying on the incorporation of ^33P into the protein substrate histone 2B, the detection is based on the adhesion of the phosphorylated protein to the surface of scintillator-coated flash plates (NEN, USA; #SMP-200). This phosphorylation is measured by counting the plate for 60 sec. using a plate reader (Wallac Microbeta; Perkin Elmer, USA).

PKA = molecular target: T2, PKA (Homo sapiens, UniProt P17612); assay: Biochemical PKA assay (flashplate); conditions: 100 nM ATP; read-out: PKA inhibition: −log IC50 (converted)
T2 construct: His; purchased PanVera, USA #R3791; host or cells: E. coli
Description: For the biochemical PKA assay the catalytic subunit of PKA is expressed in E. coli as a His-tagged human recombinant protein and purified accordingly (PanVera, USA; #R3791).
In order to study the kinase inhibition activity of the compounds according to the invention, a flashplate-based assay has been developed for the serine/threonine kinase, PKA. The assay is run in 96 well plates by incubating 1 ng/well His-PKA (PanVera, USA; #R3791), 0.5 μM/well PKA peptide (#12-394; Upstate, USA) as substrate, 10 μl of compound of invention (test compounds were dissolved as 10 mM solutions in dimethylsulfoxide (DMSO) and subsequently diluted) and 100 nM ATP (including ^33P-ATP) in 100 μl of reaction buffer ([…], pH7,5; 3 mM MgCl2; 3 mM MnCl2; 3 μM Na-Orthovanadat; 1 mM DTT) for 80 minutes at 22° C. The reactions are stopped by adding 100 μl stopping buffer (2% H3PO4 for 5 minutes) and are washed 3 times by using washing buffer (200 μl 1×PBS). Relying on the incorporation of ^33P into the peptide substrate, the detection is based on the adhesion of the phosphorylated peptide to the surface of scintillator-coated Flash plates (Perkin Elmer, USA; #SMP-103). This phosphorylation is measured by counting the plate for 60 sec. using a plate reader (Wallac Microbeta; Perkin Elmer, USA). By using this method the IC50 of the PKA inhibition is determined.

MCF7 cells = assay: Cellular proliferation/cytotoxicity assay (Alamar Blue), MCF7; conditions: Homo sapiens, MCF7, 48 h, read-out: Anti-proliferative/cytotoxic activity: IC50 MCF7
MDA-MB-468 cells = assay: Cellular proliferation/cytotoxicity assay (Alamar Blue), MDA-MB-468; conditions: Homo sapiens, MDA-MB-468, 48 h, read-out: Anti-proliferative/cytotoxic activity: IC50 MDA468
Description: The anti-proliferative activity of the compounds as described herein, is evaluated using MCF7 and MDA-MB-468 (ATCC HTB-22 and HTB-132) cell lines and the Alamar Blue (Resazurin) cell viability assay (O'Brien et al. Eur J Biochem 267, 5421-5426, 2000). Resazurin is reduced to the fluorescent resorufin by cellular dehydrogenase activity, correlating with viable, proliferating cells. Test compounds are dissolved as 10 mM solutions in DMSO and subsequently diluted. MCF7 or MDA-MB-434 cells were seeded into 96 well flat bottom plates at a density of 10000 cells/well (MCF7) or 5000 cells/well (MDA-MB-468) in a volume of 200 μl/well. 24 hours after seeding, 1 μl each of the compound dilutions are added into each well of the 96 well plates. Each compound dilution is tested as at least as duplicates. Wells containing untreated control cells were filled with 200 μl DMEM containing 0.5% v:v DMSO. The cells are then incubated with the substances for 48 hours at 37° C. in a humidified atmosphere containing 5% carbon dioxide. To determine cell viability, 20 μl of a Resazurin solution (Sigma; 90 mg/l) are added. After 4 hours incubation at 37° C. the fluorescence is measured at an extinction of 544 nm and an emission of 590 nm (Wallac Victor2; Perkin Elmer, USA). For the calculation of the cell viability the emission value from untreated cells is set as 100% viability and the emission rates of treated cells are set in relation to the values of untreated cells. Viabilities are expressed as % values. The corresponding IC50 values of the compounds for cytotoxic activity are determined from the concentration-effect curves by means of non-linear regression. The analysis of the data is performed using a biostatistical program (GraphPad Prism, USA).

T1 sequence (P31749 107-480, stated change not applied): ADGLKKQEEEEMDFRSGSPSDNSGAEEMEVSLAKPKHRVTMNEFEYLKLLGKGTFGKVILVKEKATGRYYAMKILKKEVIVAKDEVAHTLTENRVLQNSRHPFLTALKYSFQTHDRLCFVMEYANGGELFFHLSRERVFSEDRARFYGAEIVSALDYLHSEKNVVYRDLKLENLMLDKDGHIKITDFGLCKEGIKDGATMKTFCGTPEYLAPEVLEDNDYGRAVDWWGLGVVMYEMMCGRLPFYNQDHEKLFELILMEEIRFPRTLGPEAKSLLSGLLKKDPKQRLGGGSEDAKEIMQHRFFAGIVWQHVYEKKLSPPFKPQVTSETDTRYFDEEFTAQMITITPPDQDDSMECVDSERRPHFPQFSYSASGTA

| Compound | IC50 (GST-ΔPH-Akt1) [µM] | IC50 (PKA) [µM] | IC50 (MCF7 cells) [µM] | IC50 (MDA-MB-468 cells) [µM] |
| --- | --- | --- | --- | --- |
| NCC(C(=O)Nc1cccc(Nc2nc(-c3cccc4c3oc3ccccc34)cc3ccnn23)c1)c1ccc(Cl)c(Cl)c1 (racemic) [Example 41, rac-3-Amino-N-[3-(5-dibenzofuran-4-yl-pyrazolo[1,5-c]pyrimidin-7-ylamino)-phenyl]-2-(3,4-dichloro-phenyl)-propionamide] | ≤ 1.75 | > 100 | ≤ 16.9 | ≤ 13.6 |
| NCc1ccc(C(=O)Nc2ccc(Nc3nc(-c4ccc(-c5ccccc5)cc4)cc4ccnn34)cc2)cc1 [Example 1, 4-Aminomethyl-N-[4-(5-biphenyl-4-yl-pyrazolo[1,5-c]pyrimidin-7-ylamino)-phenyl]-benzamide] | ≤ 1.75 | > 100 | ≤ 16.9 | ≤ 13.6 |
| NCc1ccc(C(=O)Nc2cccc(Nc3nc(-c4cccc5c4oc4ccccc45)cc4ccnn34)c2)c(F)c1 [Example 27, 4-Aminomethyl-N-[3-(5-dibenzofuran-4-yl-pyrazolo[1,5-c]pyrimidin-7-ylamino)-phenyl]-2-fluoro-benzamide] | ≤ 1.75 | > 100 | ≤ 16.9 | ≤ 13.6 |
| NCc1ccc(C(=O)Nc2ccc(Nc3nc(-c4cccc5c4oc4ccccc45)cc4ccnn34)cc2)c(F)c1 [Example 28, 4-Aminomethyl-N-[4-(5-dibenzofuran-4-yl-pyrazolo[1,5-c]pyrimidin-7-ylamino)-phenyl]-2-fluoro-benzamide] | ≤ 1.75 | > 100 | ≤ 16.9 | ≤ 13.6 |
| CNCc1ccc(C(=O)Nc2cccc(Nc3nc(-c4cccc5c4oc4ccccc45)cc4ccnn34)c2)cc1 [Example 32, N-[3-(5-Dibenzofuran-4-yl-pyrazolo[1,5-c]pyrimidin-7-ylamino)-phenyl]-4-methylaminomethyl-benzamide] | ≤ 1.75 | 6.31 to 100 | ≤ 16.9 | ≤ 13.6 |
| CNCc1ccc(C(=O)Nc2ccc(Nc3nc(-c4cccc5c4oc4ccccc45)cc4ccnn34)cc2)cc1 [Example 33, N-[4-(5-Dibenzofuran-4-yl-pyrazolo[1,5-c]pyrimidin-7-ylamino)-phenyl]-4-methylaminomethyl-benzamide] | ≤ 1.75 | > 100 | ≤ 16.9 | ≤ 13.6 |
| CC(C)(N)c1ccc(C(=O)Nc2cccc(Nc3nc(-c4cccc5c4oc4ccccc45)cc4ccnn34)c2)cc1 [Example 40, 4-(1-Amino-1-methyl-ethyl)-N-[3-(5-dibenzofuran-4-yl-pyrazolo[1,5-c]pyrimidin-7-ylamino)-phenyl]-benzamide] | ≤ 1.75 | 6.31 to 100 | – | – |
| N=C(N)Nc1ccc(C(=O)Nc2ccc(Nc3nc(-c4cccc5c4oc4ccccc45)cc4ccnn34)cc2)cc1 [Example 48, N-[4-(5-Dibenzofuran-4-yl-pyrazolo[1,5-c]pyrimidin-7-ylamino)-phenyl]-4-guanidino-benzamide] | ≤ 1.75 | > 100 | – | – |
| COc1cccc(-c2ccc(-c3cc4ccnn4c(Nc4ccc(NC(=O)c5ccc(CCN)cc5)cc4)n3)cc2)c1 [Example 78, 4-(2-Amino-ethyl)-N-{4-[5-(3′-methoxy-biphenyl-4-yl)-pyrazolo[1,5-c]pyrimidin-7-ylamino]-phenyl}-benzamide] | ≤ 1.75 | – | ≤ 16.9 | ≤ 13.6 |

More lines, main results first:

| IC50 (GST-ΔPH-Akt1) [µM] | IC50 (PKA) [µM] | Compound | IC50 (MCF7 cells) [µM] | IC50 (MDA-MB-468 cells) [µM] |
| --- | --- | --- | --- | --- |
| ≤ 1.75 | 6.31 to 100 | NCCC(C(=O)Nc1ccc(Nc2nc(-c3cccc4c3oc3ccccc34)cc3ccnn23)cc1)c1ccc(Cl)c(Cl)c1 (racemic) [Example 43, rac-4-Amino-N-[4-(5-dibenzofuran-4-yl-pyrazolo[1,5-c]pyrimidin-7-ylamino)-phenyl]-2-(3,4-dichloro-phenyl)-butyramide] | ≤ 16.9 | ≤ 13.6 |
| ≤ 1.75 | > 100 | NCCc1ccc(C(=O)Nc2ccc(Nc3nc(-c4cccc5c4oc4ccccc45)cc4ccnn34)cc2)cc1 [Example 23, 4-(2-Amino-ethyl)-N-[4-(5-dibenzofuran-4-yl-pyrazolo[1,5-c]pyrimidin-7-ylamino)-phenyl]-benzamide] | ≤ 16.9 | ≤ 13.6 |
| ≤ 1.75 | > 100 | NCc1ccc(C(=O)Nc2ccc(Nc3nc(-c4cccc5c4oc4ccccc45)cc4ccnn34)cc2)cn1 [Example 29, 6-Aminomethyl-N-[4-(5-dibenzofuran-4-yl-pyrazolo[1,5-c]pyrimidin-7-ylamino)-phenyl]-nicotinamide] | ≤ 16.9 | ≤ 13.6 |
| ≤ 1.75 | > 100 | NCc1cc(C(=O)Nc2ccc(Nc3nc(-c4cccc5c4oc4ccccc45)cc4ccnn34)cc2)ccn1 [Example 30, 2-Aminomethyl-N-[4-(5-dibenzofuran-4-yl-pyrazolo[1,5-c]pyrimidin-7-ylamino)-phenyl]-isonicotinamide] | – | – |
| ≤ 1.75 | 6.31 to 100 | O=C(Nc1cccc(Nc2nc(-c3cccc4c3oc3ccccc34)cc3ccnn23)c1)c1ccc2c(c1)CNCC2 [Example 34, 1,2,3,4-Tetrahydro-isoquinoline-7-carboxylic acid [3-(5-dibenzofuran-4-yl-pyrazolo[1,5-c]pyrimidin-7-ylamino)-phenyl]-amide] | ≤ 16.9 | ≤ 13.6 |
| ≤ 1.75 | > 100 | NCc1cccc(C(=O)Nc2ccc(Nc3nc(-c4cccc5c4oc4ccccc45)cc4ccnn34)cc2)n1 [Example 51, 6-Aminomethyl-pyridine-2-carboxylic acid [4-(5-dibenzofuran-4-yl-pyrazolo[1,5-c]pyrimidin-7-ylamino)-phenyl]-amide] | – | – |
| ≤ 1.75 | 6.31 to 100 | NCc1ccc(C(=O)Nc2ccc(Nc3nc(-c4ccc(-c5ccccc5)nc4)cc4ccnn34)cc2)cc1 [Example 54, 4-Aminomethyl-N-{4-[5-(6-phenyl-pyridin-3-yl)-pyrazolo[1,5-c]pyrimidin-7-ylamino]-phenyl}-benzamide] | – | – |
| ≤ 1.75 | 6.31 to 100 | CC(=O)Nc1cccc(-c2ccc(-c3cc4ccnn4c(Nc4ccc(NC(=O)c5ccc(CN)cc5)cc4)n3)cc2)c1 [Example 60, N-{4-[5-(3′-Acetylamino-biphenyl-4-yl)-pyrazolo[1,5-c]pyrimidin-7-ylamino]-phenyl}-4-aminomethyl-benzamide] | – | – |
| ≤ 1.75 | – | O=C(Nc1ccc(Nc2nc(-c3ccc(-c4cccc([N+](=O)[O-])c4)cc3)cc3ccnn23)cc1)c1ccc2c(c1)CCNC2 [Example 80, 1,2,3,4-Tetrahydro-isoquinoline-6-carboxylic acid {4-[5-(3′-nitro-biphenyl-4-yl)-pyrazolo[1,5-c]pyrimidin-7-ylamino]-phenyl}-amide] | ≤ 16.9 | ≤ 13.6 |
| ≤ 1.75 | – | NCCc1ccc(C(=O)Nc2ccc(Nc3nc(-c4ccc(-c5cccc([N+](=O)[O-])c5)cc4)cc4ccnn34)cc2)cc1 [Example 81, 4-(2-Amino-ethyl)-N-{4-[5-(3′-nitro-biphenyl-4yl)-pyrazolo[1,5-c]pyrimidin-7-ylamino]-phenyl}-benzamide] | ≤ 16.9 | ≤ 13.6 |
| ≤ 1.75 | – | O=C(Nc1ccc(Nc2nc(-c3ccc(Br)cc3)cc3ccnn23)cc1)c1ccc2c(c1)CCNC2 [Example 85, 1,2,3,4-Tetrahydro-isoquinoline-6-carboxylic acid {4-[5-(4-bromo-phenyl)-pyrazolo[1,5-c]pyrimidin-7-ylamino]-phenyl}-amide] | ≤ 16.9 | ≤ 13.6 |

Source: US7745446B2, “Pyrazolo[1,5-c]pyrimidines” (Bayer Schering Pharma Aktiengesellschaft, priority 2004, dated 2010)
